Results: publication PMC11769294, “(E)-1-(3-(3-Hydroxy-4-Methoxyphenyl)-1-(3,4,5-Trimethoxyphenyl)allyl)-1H-1,2,4-Triazole and Related Compounds: Their Synthesis and Biological Evaluation as Novel Antimitotic Agents Targeting Breast Cancer” (Pharmaceuticals, 2025)

What was measured:
CYP1A1 = CYP1A1 (Homo sapiens, UniProt P04798); test: Cytochrome P450 assay (DBF fluorescence)
[1] = tested on: tubulin in MCF-7 breast cancer cells; test: Immunofluorescence confocal microscopy of microtubules; type: cell-based, human; details: 16 h, 22b 10 μM, paclitaxel and phenstatin 1 μM
Experimental: Briefly, the MCF-7 cells were seeded at a density of 1 × 10^5 cells/mL on eight chamber glass slides (BD Biosciences). […] The cells were then washed in PBS, fixed for 20 min with 4% paraformaldehyde in PBS, and permeabilized in 0.5% Triton X-100. […] Images of the cells were obtained using Leica SP8 confocal microscopy (Wetzlar, Germany) with Leica application suite X software (Wetzlar, Germany). Experiments were performed on three independent occasions.
The micrograph images were obtained with Leica SP8 confocal microscopy utilizing Leica application suite X software. Representative confocal images of three separate experiments are shown. The scale bar indicates 25 μm.

[2] = tested on: MDA-MB-231 breast cancer cells; test: alamarBlue cell viability assay; type: cell-based; details: Homo sapiens
Experimental: HL-60 cells were suspension cells and the seeding density for the viability assay was 25,000 cells/mL. MCF-7 cells (adherent) were cultured in Minimum Essential Media (MEM) with GlutaMAX™-I, supplemented with 1% (v/v) non-essential amino acids, 10% (v/v) fetal bovine serum (FBS), purchased from BD Biosciences (Edmund Halley Road, Oxford, UK), and 1% (v/v) penicillin/streptomycin 5000 U/mL. The MCF-7 cells used in the screening of the compounds during these experiments were mycoplasma-free. The seeding density of MCF-7 in the viability assay was 25,000 cells/mL and 50,000 cells/mL in the FACS assay. […]
The biochemical assays were performed in triplicate and on at least three independent occasions to facilitate the determination of mean values. […] Adherent cells such as MCF-7, MDA-MB-231, and MCF-10A were trypsinized to detach them from the flask, counted as previously described, and seeded in 96 well plates with a seeding density of 25,000 cells /mL (200 µL of suspension in each well so that the final number of cells per well was 5000) and 1 × 10^4 cells/well seeding density for suspension HL-60 cells. […] After 72 h, the change in color was measured by spectrofluorimetry at an excitation wavelength of 544 nm and emission wavelength of 590 nm. […]

[3] = tested on: MCF-10A human mammary epithelial cells; test: Cytotoxicity in MCF-10A cells (alamarBlue); type: cell-based; details: 10 μM, 24 h
Experimental: Figure 9 Effect of compounds 22a (A) and 22b (B) on the cell viability of non-tumorigenic MCF-10A human mammary epithelial cells at 24, 48, and 72 h. Cells were treated with the compounds 22a and 22b at concentrations of 10 μM, 1 μM, 0.5 μM, and 0.4 μM for 24, 48, or 72 h. […] Cell viability was expressed as a percentage of vehicle control (ethanol 1% (v/v)) and was determined by an alamarBlue assay (average ± SEM of three independent experiments). Two-way ANOVA (Bonferroni post-test) was used to test for statistical significance (*, p < 0.05; **, p < 0.01; ***, p < 0.001).
HL-60 cells were suspension cells and the seeding density for the viability assay was 25,000 cells/mL. MCF-7 cells (adherent) were cultured in Minimum Essential Media (MEM) with GlutaMAX™-I, supplemented with 1% (v/v) non-essential amino acids, 10% (v/v) fetal bovine serum (FBS), purchased from BD Biosciences (Edmund Halley Road, Oxford, UK), and 1% (v/v) penicillin/streptomycin 5000 U/mL. The MCF-7 cells used in the screening of the compounds during these experiments were mycoplasma-free. The seeding density of MCF-7 in the viability assay was 25,000 cells/mL and 50,000 cells/mL in the FACS assay. Normal breast cells (MCF-10A) (adherent) were cultured in Dulbecco’s Modified Eagle Medium: Nutrient Mixture F-12 (DMEM/F12; Gibco) supplemented with 5% horse serum (Invitrogen, Waltham, MA, USA), 20 ng/mL epidermal growth factor (Merck Millipore, Burlington, MA, USA), 0.5 μg/mL hydrocortisone (Sigma, Kanagawa, Japan), 100 ng/mL cholera toxin (Sigma), 10 μg/mL insulin (Sigma), and penicillin/streptomycin 5000 U/mL (1%) (Gibco, Waltham, MA, USA). […] MDA-MB-231 cells were cultured in Dulbecco’s Modified Eagle Medium, which was supplemented with 10% (v/v) fetal bovine serum (FBS) and 1% (v/v) penicillin/streptomycin 5000 U/mL. When not in use, all cells were kept in liquid nitrogen and frozen in a freezing media made of 90% FBS and 10% DMSO. All cells were grown in an atmosphere of 5% CO2/95% air in T75 culture flasks. The media was changed every 2–3 days and media was always prewarmed to 37 °C. All were sub-cultured every 3–4 days by trypsinization using TrypLE™ Express enzyme when confluence was reached to allow growth, prevent excessive cell death, and minimize the risk of infections derived by over-confluence. For the cell viability assay, the number of cells per milliliter was 25,000 cells/mL while the FACS assay utilized 50,000 cells/mL. Cells were maintained at 37 °C in 5% CO2 in a humidified incubator.
The biochemical assays were performed in triplicate and on at least three independent occasions to facilitate the determination of mean values. For the viability assay, cells were grown until 80% confluent. Adherent cells such as MCF-7, MDA-MB-231, and MCF-10A were trypsinized to detach them from the flask, counted as previously described, and seeded in 96 well plates with a seeding density of 25,000 cells /mL (200 µL of suspension in each well so that the final number of cells per well was 5000) and 1 × 10^4 cells/well seeding density for suspension HL-60 cells. Adherent cells were incubated for 24 h after being seeded in the 96 well plate and treated on the following day, while suspension cells were treated on the same day of the seeding. In both cases, the incubation time after the treatment with the drug was 72 h. After 68 h incubation, the AlamarBlue was added (20 µL in each well) and the incubation time was completed. After 72 h, the change in color was measured by spectrofluorimetry at an excitation wavelength of 544 nm and emission wavelength of 590 nm. AlamarBlue is a cell viability indicator containing a compound called resazurin. AlamarBlue is water soluble, stable in culture media, non-toxic, and is permeable through the cell membrane. When resazurin (blue) enters the live cells, it is reduced to the fluorescent molecule resorufin (pink).

Chain of CYP1A1 (P04798 whole entry): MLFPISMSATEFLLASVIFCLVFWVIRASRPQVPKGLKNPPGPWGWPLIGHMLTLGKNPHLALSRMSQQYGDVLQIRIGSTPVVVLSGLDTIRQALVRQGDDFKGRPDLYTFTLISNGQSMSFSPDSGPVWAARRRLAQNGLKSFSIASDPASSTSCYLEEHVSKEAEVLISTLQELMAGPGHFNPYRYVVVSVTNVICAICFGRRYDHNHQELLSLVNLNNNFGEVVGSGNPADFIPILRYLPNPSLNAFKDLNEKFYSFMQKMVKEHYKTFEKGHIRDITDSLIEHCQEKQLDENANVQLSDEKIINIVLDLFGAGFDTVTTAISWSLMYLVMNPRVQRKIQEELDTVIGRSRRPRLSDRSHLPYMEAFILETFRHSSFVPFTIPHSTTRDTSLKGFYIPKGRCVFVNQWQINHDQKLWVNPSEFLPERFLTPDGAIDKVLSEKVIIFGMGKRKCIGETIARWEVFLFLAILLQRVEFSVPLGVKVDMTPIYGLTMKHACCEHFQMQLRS

COc1ccc(/C=C/C(c2cc(OC)c(OC)c(OC)c2)n2cncn2)cc1O (centres unmarked) [Compound 22b, (E)-5-(3-(1H-1,2,4-Triazol-1-yl)-3-(3,4,5-trimethoxyphenyl)prop-1-en-1-yl)-2-methoxyphenol]
IC50 (CYP1A1): > 53 µM
effect on microtubule network [1]: disorganized microtubule network structure similar to that observed with phenstatin, together with multinucleation
IC50 [2]: 770 nM
IC50 ([2]; 72 h): 765 ± 30 nM
cell death [3]: approximately 50%
